1 compound from paper PMC3983056 (PLoS Pathogens, 2014) can be followed below.

One data set deals with T1, human HDAC-4 (Homo sapiens, UniProt P56524).
T1 construct: purchased Reaction Biology Corporation (Malvern, PA)
Briefly: HDAC inhibition assay. Format: biochemical. The protocol: (§1) Determination of HDACi potency against individual HDAC enzymes was performed at Reaction Biology Corporation (Malvern, PA). In brief, human HDAC-1 to -11 enzymes were incubated with serial dilutions of HDACi and fluorogenic peptide substrates (50 µM) in a 96-well format assay. […] Fluorogenic peptide Boc-Lys(trifluoroacetyl)-AMC was used as a substrate for HDAC enzymes 4, 5, 7, and 9.

The next data set addresses T2, human HDAC-10 (Homo sapiens, UniProt Q969S8).
T2 construct: purchased Reaction Biology Corporation (Malvern, PA)
Briefly: HDAC inhibition assay. The format is biochemical. How it is done: as §1

The nature of data set [1]: Cell culture medium protein binding by equilibrium dialysis, HPLC/mass spectrometry. Format: in vitro ADME.

T1 sequence (P56524 whole entry): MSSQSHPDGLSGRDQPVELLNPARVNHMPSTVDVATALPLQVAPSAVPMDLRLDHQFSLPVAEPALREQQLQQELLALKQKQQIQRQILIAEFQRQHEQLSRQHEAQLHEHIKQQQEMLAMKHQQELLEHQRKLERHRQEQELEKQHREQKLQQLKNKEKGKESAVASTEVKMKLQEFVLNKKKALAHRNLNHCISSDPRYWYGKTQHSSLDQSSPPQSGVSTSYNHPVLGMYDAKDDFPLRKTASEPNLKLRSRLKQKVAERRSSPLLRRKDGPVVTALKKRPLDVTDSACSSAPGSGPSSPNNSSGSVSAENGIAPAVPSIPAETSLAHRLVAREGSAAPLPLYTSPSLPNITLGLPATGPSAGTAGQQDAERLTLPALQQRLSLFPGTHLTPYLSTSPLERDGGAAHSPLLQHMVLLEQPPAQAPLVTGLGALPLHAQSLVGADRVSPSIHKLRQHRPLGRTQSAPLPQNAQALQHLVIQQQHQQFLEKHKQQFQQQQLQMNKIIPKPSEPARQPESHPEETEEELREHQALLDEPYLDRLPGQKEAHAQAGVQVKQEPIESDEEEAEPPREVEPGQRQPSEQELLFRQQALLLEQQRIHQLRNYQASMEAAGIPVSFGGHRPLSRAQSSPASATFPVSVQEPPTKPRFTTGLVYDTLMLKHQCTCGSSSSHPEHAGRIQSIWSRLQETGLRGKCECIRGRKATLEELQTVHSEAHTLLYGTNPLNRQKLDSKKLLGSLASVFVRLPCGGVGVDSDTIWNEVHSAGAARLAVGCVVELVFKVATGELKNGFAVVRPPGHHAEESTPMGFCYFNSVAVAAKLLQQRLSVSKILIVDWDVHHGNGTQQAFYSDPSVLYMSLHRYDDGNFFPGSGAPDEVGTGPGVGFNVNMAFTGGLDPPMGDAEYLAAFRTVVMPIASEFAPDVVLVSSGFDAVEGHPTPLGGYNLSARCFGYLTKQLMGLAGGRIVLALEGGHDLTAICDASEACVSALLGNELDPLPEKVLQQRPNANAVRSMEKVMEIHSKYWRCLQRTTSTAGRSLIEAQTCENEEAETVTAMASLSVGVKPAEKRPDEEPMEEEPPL
T2 sequence (Q969S8 whole entry): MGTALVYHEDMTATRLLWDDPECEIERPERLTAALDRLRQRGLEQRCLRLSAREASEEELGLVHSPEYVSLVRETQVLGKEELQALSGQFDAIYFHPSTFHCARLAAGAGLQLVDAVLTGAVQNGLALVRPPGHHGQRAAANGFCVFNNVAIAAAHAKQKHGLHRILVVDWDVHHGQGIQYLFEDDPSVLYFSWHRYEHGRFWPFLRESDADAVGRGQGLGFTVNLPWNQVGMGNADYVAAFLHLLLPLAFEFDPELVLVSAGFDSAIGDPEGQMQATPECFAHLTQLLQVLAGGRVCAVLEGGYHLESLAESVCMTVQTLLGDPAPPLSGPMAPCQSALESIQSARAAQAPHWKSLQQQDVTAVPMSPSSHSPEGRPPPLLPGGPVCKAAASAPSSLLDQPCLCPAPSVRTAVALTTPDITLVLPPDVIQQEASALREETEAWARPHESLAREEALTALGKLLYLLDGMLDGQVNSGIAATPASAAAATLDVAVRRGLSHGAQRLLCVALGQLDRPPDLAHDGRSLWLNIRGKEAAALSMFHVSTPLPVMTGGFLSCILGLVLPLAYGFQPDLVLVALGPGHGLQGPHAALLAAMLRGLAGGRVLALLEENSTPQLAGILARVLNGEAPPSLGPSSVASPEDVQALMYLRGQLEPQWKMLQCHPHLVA

Regarding `C/C=C1\NC(=O)[C@H]2CSSCC/C=C/[C@H](CC(=O)N[C@H](C(C)C)C(=O)N2)OC(=O)[C@H](C(C)C)NC1=O` [RMD, romidepsin], the IC50 on human HDAC-4 is 314 nM; on human HDAC-10, 0.133 nM. In addition, the “Free drug concentration, ex vivo cell culture exposure” value in data set [1] (RMD 40 nM, VOR 1,000 nM in culture) came to 22 nM. Moreover, the fraction unbound in data set [1] (cell culture medium, equilibrium dialysis, read-out: Cell culture medium protein binding (free fraction)) stood at 0.55.
